Test results reported in patent US8741886B2, “Baclofen and acamprosate based therapy of neurological disorders” (Pharnext, priority 2011, dated 2014).

Experiments:
[1] = tested on: mice injected i.c.v. with Aβ25-35 peptide; assay: Spontaneous alternation, Y-maze test, after i.c.v. Aβ25-35; assay type: in vivo; conditions: Acamprosate 32 μg/kg/day, Baclofen 480 μg/kg/day
Text: The Y-maze is made of grey polyvinylchloride. Each arm is 40 cm long, 13 cm high, 3 cm wide at the bottom, 10 cm wide at the top, and converging at an equal angle. […] An alternation is defined as entries into all three arms on consecutive occasions.

[2] = tested on: rat primary cortical cells; assay: Toxicity of human Aβ1-42 peptide on primary cortical neuron cells: LDH release; assay type: cell-based; conditions: for protection of neurons from amyloid injury: 1 h pre-treatment, Estradiol 150 nM or BDNF 50 ng/mL
Protocol: Rat cortical neurons were cultured as described by Singer et al. (47). Briefly pregnant female rats of 15 days gestation were killed by cervical dislocation (Rats Wistar) and the foetuses were removed from the uterus. The cortex was removed and placed in ice-cold medium of Leibovitz (L15) containing 2% of Penicillin 10.000 U/ml and Streptomycin 10 mg/ml and 1% of bovine serum albumin (BSA). Cortexes were dissociated by trypsin for 20 min at 37° C. (0.05%). The reaction was stopped by the addition of Dulbecco's modified Eagle's medium (DMEM) containing DNasel grade II and 10% of foetal calf serum (FCS). Cells were then mechanically dissociated by 3 serial passages through a 10 ml pipette and centrifuged at 515×g for 10 min at +4° C. The supernatant was discarded and the pellet of cells was re-suspended in a defined culture medium consisting of Neurobasal supplemented with B27 (2%), L-glutamine (0.2 mM), 2% of PS solution and 10 ng/ml of BDNF. Viable cells were counted in a Neubauer cytometer using the trypan blue exclusion test. The cells were seeded at a density of 30 000 cells/well in 96 well-plates (wells were pre-coated with poly-L-lysine (10 μg/ml)) and were cultured at +37° C. in a humidified air (95%)/CO2 (5%) atmosphere.
Briefly, Aβ1-42 peptide was reconstituted in define culture medium at 40 μM (mother solution) and was slowly shaken at +37° C. for 3 days in dark. The control medium was prepared in the same conditions.
After 10 days of neuron culture, test compounds were solved in culture medium (+0.1% DMSO) and then pre-incubated with neurons for 1 hour before the Aβ1-42 application (in a final volume per culture well of 100 μl). One hour after test compound(s) incubation, 100 μl of Aβ1-42 peptide was added to a final concentration of 10 μM diluted in presence of drug(s), in order to avoid further test compound(s) dilutions. Cortical neurons were intoxicated for 24 hours. Three separate cultures were performed per condition, 6 wells per condition.
BDNF (50 ng/ml) and Estradiol-β (150 nM) were used as positive control and reference compounds respectively. Three separate cultures will be performed per condition, 12 wells per condition.
Estradiol-β at 150 nM was used as a positive control (FIG. 4).
Estradiol-β was solved in culture medium and pre-incubated for 1 h before the amyloid-β1-42 application.
The following conditions were assessed: • CONTROL PLAQUE: 12 wells/condition • Negative Control: medium alone+0.1% DMSO • Intoxication: amyloid-β1-42 (10 μM) for 24 h • Reference compound: Estradiol (150 nM) 1 hr. • DRUG PLATE: 6 wells/condition • Negative Control: medium alone+0.1% DMSO • Intoxication: amyloid-β1-42 (10 μM) for 24 h • Test compound(s): test compound(s)—1 hr followed by amyloid-β1-42 (10 μM) for 24 h Lactate Dehydrogenase (LDH) Activity Assay
24 hours after intoxication, the supernatant was taken off and analyzed with Cytotoxicity Detection Kit (LDH, Roche Applied Science, ref: 11644793001, batch: 11800300). This colorimetric assay for the quantification of cell toxicity is based on the measurement of lactate dehydrogenase (LDH) activity released from the cytosol of dying cells into the supernatant.
Data were expressed in percentage of control conditions (no intoxication, no amyloid=100%) in order to express the amyloid injury. All values were expressed as mean+/−SEM (s.e.mean) of the 3 cultures (n=6 wells per condition). Statistic analyses were done on the different conditions (ONE-WAY ANOVA followed by the Dunnett's test when it was allowed, Statview software version 5.0).

For `COc1cc2c(cc1OC)C(=O)C(CC1CCN(Cc3ccccc3)CC1)C2` (centres unmarked) [Donepezil], the “protection of percentage of alternation (Y-maze), low doses with Donepezil” value ([1]; Donepezil 0.25 mg/kg/day) was 32% and the “effect on percentage of alternation (Y-maze), low doses (in words)” value ([1]; drugs alone: Donepezil 0.25 mg/kg/day) was “no significant effect”.

`NCCCS(=O)(=O)O` [Homotaurine] was tested, and the “prevention of Aβ1-42 intoxication by pre-treatment” value ([2]; 8 nM) was 99%.

In the case of `C[C@]12CC[C@@H]3c4ccc(O)cc4CC[C@H]3[C@@H]1CC[C@@H]2O` [Estradiol], the “protection of neurons from amyloid injury” value [2] is reported as −94%.

B1: BDNF: BDNF (50 ng/ml) used as positive control for neuroprotection (protein, UniProt P23560 19-247, looked up)
Neurotrophic factor BDNF …: APMKEANIRGQGGLAYPGVRTHGTLESVNGPKAGSRGLTSLADTFEHVIEELLDEDQKVRPNEENNKDADLYTSRVMLSSQVPLEPPLLFLLEEYKNYLDAANMSMRVRRHSDPARRGELSVCDSISEWVTAADKKTAVDMSGGTVTVLEKVPVSKGQLKQYFYETKCNPMGYTKEGCRGIDKRHWNSQCRTTQSYVRALTMDSKKRIGWRFIRIDTSCVCTLTIKRGR
For B1, the “protection of neurons from amyloid injury” value [2] was −94%.
